From patent US12226501B2, “Composition with stabilized taste and odor” (Symrise AG, priority 2015, dated 2025)

What was measured:
[1] = ABTS-assay, anti-oxidative capacity (inhibition of radical formation); type: biochemical; conditions: for IC50: ABTS radical cation, absorption at 734 nm, mean value from at least 2 independent tests
Description: 6-Paradol is a known antioxidant. With the help of the ABTS-assay the anti-oxidative capacity of [6]-paradol and alpha-tocopherol was compared.
2,2′-azino bis-(3-ethylbenzothiazoline 6-sulfonic acid) (ABTS) was transformed by potassium persulfate into the blue-green radical cation ABTS•^+. Through the addition of [6]-paradol and alpha-tocopherol the radical cations were reduced and discoloration was observed, which was determined photometrically by Absorption at 734 nm. The inhibition of the radical formation of the test substance is calculated by the following formula:
[formula] Wherein the abbreviations have the following meanings: • Atest substance: Absorption of the wells with test substance including [6]-paradol and alpha-tocopherol • Acontrol: Absorption of the wells without test substance
From the inhibition of the radical formation [%] in a series of dilutions of tested samples the IC50 was calculated. This is the concentration at which the radical formation is inhibited by 50%.

[2] = Stabilization of avocado oil, absorbance at 232 nm (conjugated dienes); type: physicochemical; conditions: compared to avocado oil without additive or to alpha-tocopherol 0.5%
Description: To evaluate the odor protecting effect of [6]-paradol on oils, oil samples comprising avocado oil without (A) and with different additives (B to D) were prepared as given in Table 5.
(§1) The oil samples were divided respectively into 3 portions, wherein one part was exposed to artificial UV light in a suntest device (Original Hanau-Xenon lamp) for 8 hours 550-600 W/m^2 (300 to 800 nm). The other two portions were stored for 1 month either at room temperature exposed to normal daylight (RTL) or at 50° C. in a heating cabinet (50° C.), respectively. After the treatments, the absorbance at 232 nm was determined as this positive correlates with the state of oxidation by detecting conjugated dienes as specific oxidized compounds.

[3] = Stabilization of argan oil, absorbance at 232 nm (conjugated dienes); type: physicochemical; conditions: compared to argan oil without additive or to alpha-tocopherol 0.5%
Description: To evaluate the protecting effect of oils from oxidation, oil samples comprising argan oil without (A) and with different additives (B to D) were prepared as given in Table 8.
as §1, with “oils” for “oil samples”, “divided” for “divided respectively”, “portions each. One portion” for “portions, wherein one part”, “this” for “this positive”

oxidized DNA bases = conditions: in vitro; cited from earlier work
DMBA-treated hamsters = conditions: oral 30 mg/kg b.w. on alternate days for 14 weeks; cited from earlier work
[4] = Color measurement (CIELAB L*a*b*, ΔE) of anti-aging cream containing a retinoid after suntest; type: physicochemical
Description: Retinoids such as e.g. retinol are potent anti-aging cosmetic agents known to be unstable and prone to discoloration upon light exposure and longer storage at higher temperatures (e.g. >30° C.).
The phase A was heated to 80° C. For phase B, Carbopol Ultrez 21 was sprinkled at the surface of the water for swelling. Afterwards, glycerin was added and phase B was heated up to 80°. Then phase B was added to phase A under strong agitation with an Ultra Turrax. The formula was cooled down and phase C was added at around 40° C. Afterwards, the formula was neutralized with sodium hydroxide to get pH 5-5.5. When the formula was at room temperature, phase E was added under agitation. Final pH was checked to be 5-5.5.
The cream samples were exposed to artificial UV light in a suntest device (Original Hanau-Xenon lamp) for 8 hours 550-600 W/m^2 (300 to 800 nm). Afterwards, they were evaluated for discoloration by measurement of L*a*b* values and calculation of the color difference ΔE as described in example 8.

Row | IC50 [1] [µM] | protective effect on avocado oil (in words) [2] | protective effect on argan oil (in words) [3] | Compound | radical scavenging activity better than alpha-tocopherol ([1]; comparison of IC50 values) [fold] | H2O2- and UV-induced formation of oxidized DNA bases (oxidized DNA bases) | status of antioxidants (DMBA-treated hamsters) | color protection of retinol (in words) [4]
1 | 17.4 | lower increase of absorbance at 232 nm | lower increase of absorbance at 232 nm | CCCCCCCC(=O)CCc1ccc(O)c(OC)c1 [[6]-paradol, 1-(4-hydroxy-3-methoxyphenyl)-decan-3-one] | 1.5 | attenuated | significantly improved the status of antioxidants | –
2 | 26.8 | – | – | Cc1c(C)c2c(c(C)c1O)CC[C@@](C)(CCC[C@H](C)CCC[C@H](C)CCCC(C)C)O2 [alpha-tocopherol, reference compound] | – | – | – | unsuitable for protecting retinol from discoloration
